Tests used:
ROCK1 = ROCK1 (Homo sapiens (Human), UniProt Q13464); experiment: ROCK assay (Caliper LABCHIP peptide phosphorylation), ROCK1; type: biochemical; settings: 5 μM ATP, 1.5 μM peptide substrate;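 note: Read-out is separation of phosphorylated from unphosphorylated peptide, with kinase activity inhibition computed at every concentration of a dose-response series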
ROCK2 = ROCK2 (Homo sapiens (Human), UniProt O75116); experiment: ROCK assay (Caliper LABCHIP peptide phosphorylation), ROCK2; type: biochemical; settings: 5 μM ATP, 1.5 μM peptide substrate;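 note: reaction stopped with EDTA, then phosphorylated and unphosphorylated peptide resolved by microfluidic electrophoresis, kinase inhibition computed at each compound concentration in dose-response series, DMSO under 2%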
Chain of ROCK2 (O75116 whole entry, species assumed): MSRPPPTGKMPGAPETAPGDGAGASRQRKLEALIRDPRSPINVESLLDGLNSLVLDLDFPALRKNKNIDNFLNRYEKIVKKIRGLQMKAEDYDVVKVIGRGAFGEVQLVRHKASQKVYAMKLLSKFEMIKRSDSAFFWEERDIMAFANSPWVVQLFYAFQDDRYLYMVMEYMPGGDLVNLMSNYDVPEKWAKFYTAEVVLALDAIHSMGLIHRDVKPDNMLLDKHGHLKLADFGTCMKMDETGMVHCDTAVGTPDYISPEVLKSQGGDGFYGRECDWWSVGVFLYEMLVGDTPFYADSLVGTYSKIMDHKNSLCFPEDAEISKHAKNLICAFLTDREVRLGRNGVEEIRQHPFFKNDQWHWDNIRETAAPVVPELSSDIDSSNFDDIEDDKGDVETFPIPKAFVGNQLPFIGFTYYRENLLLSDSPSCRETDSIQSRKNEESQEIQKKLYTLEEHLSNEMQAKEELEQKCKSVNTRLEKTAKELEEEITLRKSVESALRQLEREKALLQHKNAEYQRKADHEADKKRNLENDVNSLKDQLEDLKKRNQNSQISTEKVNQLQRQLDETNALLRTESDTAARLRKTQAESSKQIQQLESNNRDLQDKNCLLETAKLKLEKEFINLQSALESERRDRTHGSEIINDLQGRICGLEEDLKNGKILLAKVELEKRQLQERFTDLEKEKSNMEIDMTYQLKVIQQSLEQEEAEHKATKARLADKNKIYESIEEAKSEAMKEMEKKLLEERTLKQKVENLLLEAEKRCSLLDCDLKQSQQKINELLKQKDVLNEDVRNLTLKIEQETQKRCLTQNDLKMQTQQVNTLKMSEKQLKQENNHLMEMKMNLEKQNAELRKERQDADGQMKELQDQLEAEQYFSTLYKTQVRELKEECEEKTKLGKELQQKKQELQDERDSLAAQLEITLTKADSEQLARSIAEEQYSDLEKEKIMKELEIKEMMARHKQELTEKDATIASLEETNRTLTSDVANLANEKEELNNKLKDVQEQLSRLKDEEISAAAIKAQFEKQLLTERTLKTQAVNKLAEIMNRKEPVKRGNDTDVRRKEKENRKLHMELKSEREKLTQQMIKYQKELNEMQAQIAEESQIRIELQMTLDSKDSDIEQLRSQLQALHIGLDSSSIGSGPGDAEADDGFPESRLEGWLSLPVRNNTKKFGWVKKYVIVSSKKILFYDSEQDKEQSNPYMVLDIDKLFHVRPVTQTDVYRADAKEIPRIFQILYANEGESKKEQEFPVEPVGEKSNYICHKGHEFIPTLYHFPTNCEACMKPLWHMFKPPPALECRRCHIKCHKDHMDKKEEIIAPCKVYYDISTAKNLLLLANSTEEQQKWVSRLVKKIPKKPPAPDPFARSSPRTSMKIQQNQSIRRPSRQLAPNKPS

Chain of ROCK1 (Q13464 whole entry, species assumed): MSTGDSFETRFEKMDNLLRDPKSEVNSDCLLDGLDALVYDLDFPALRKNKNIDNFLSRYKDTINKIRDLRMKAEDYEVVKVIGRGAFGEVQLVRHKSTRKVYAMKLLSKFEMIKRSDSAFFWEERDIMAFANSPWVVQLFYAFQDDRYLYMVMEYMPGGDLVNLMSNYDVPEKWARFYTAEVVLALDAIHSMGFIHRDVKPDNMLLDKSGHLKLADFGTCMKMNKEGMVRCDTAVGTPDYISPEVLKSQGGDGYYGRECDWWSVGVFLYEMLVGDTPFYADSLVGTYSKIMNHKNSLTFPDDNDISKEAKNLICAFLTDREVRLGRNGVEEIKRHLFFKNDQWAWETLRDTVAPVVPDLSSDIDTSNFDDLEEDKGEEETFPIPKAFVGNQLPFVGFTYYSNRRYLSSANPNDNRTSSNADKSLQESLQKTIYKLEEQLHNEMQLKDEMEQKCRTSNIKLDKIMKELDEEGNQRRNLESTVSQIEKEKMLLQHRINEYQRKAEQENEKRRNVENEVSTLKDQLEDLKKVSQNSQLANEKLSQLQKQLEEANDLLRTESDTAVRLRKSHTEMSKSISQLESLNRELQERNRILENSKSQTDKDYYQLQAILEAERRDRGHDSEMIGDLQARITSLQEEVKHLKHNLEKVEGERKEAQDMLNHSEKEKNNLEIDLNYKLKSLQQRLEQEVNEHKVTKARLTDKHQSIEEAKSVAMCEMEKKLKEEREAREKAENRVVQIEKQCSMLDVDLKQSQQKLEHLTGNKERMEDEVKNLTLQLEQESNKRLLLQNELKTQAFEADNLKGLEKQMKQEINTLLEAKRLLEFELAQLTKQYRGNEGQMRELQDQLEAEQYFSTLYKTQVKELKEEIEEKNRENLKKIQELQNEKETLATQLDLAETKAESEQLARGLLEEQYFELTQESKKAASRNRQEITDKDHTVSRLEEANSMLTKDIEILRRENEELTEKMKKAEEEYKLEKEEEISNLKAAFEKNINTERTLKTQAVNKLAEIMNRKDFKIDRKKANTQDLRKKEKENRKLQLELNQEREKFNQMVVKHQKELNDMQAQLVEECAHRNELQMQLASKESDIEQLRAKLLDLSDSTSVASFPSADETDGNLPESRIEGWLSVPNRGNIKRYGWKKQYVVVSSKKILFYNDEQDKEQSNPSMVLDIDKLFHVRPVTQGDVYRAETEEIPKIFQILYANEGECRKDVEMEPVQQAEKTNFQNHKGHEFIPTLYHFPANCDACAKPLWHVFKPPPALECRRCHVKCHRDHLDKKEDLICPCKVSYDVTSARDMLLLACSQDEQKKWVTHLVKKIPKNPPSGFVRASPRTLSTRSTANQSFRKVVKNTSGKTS

COc1cc(C(=O)NCCc2cccc(C(F)(F)F)c2)ccc1-c1cn[nH]c1 [Example 120, 3-methoxy-4-(1H-pyrazol-4-yl)-N-{2-[3-(trifluoro-methyl)phenyl]ethyl} benzamide]
IC50 (ROCK1): 94.6 nM
IC50 (ROCK2): 52 nM

COc1cc(C(=O)NCCc2ccc(C(F)(F)F)cc2)ccc1-c1cn[nH]c1 [Example 121, 3-methoxy-4-(1H-pyrazol-4-yl)-N-{2-[4-(trifluoro-methyl)phenyl]ethyl} benzamide]
IC50 (ROCK1): 166 nM
IC50 (ROCK2): 78.1 nM

COc1cc(C(=O)NCC(O)c2ccccc2Cl)ccc1-c1cn[nH]c1 (stereo not drawn) [Example 122, N-[2-(2-chlorophenyl)-2-hydroxyethyl]-3-methoxy-4-(1H-pyrazol-4-yl)benzamide]
IC50 (ROCK1): 35.5 nM
IC50 (ROCK2): 23.2 nM

COc1cc(C(=O)NC[C@@H](O)c2ccccc2)ccc1-c1cn[nH]c1 [Example 123, N-[(2S)-2-hydroxy-2-phenylethyl]-3-methoxy-4-(1H-pyrazol-4-yl)benzamide]
IC50 (ROCK1): 84.1 nM
IC50 (ROCK2): 41.6 nM

COc1cc(C(=O)NCCc2cccc(O)c2)ccc1-c1cn[nH]c1 [Example 124, N-[2-(3-hydroxyphenyl)ethyl]-3-methoxy-4-(1H-pyrazol-4-yl)benzamide]
IC50 (ROCK1): 21.5 nM
IC50 (ROCK2): 7 nM

COc1cc(C(=O)NCC(c2ccccc2)N2CCCC2)ccc1-c1cn[nH]c1 (stereo not drawn) [Example 125, 3-methoxy-N-[2-phenyl-2-(pyrrolidin-1-yl)ethyl]-4-(1H-pyrazol-4-yl)benzamide]
IC50 (ROCK1): 156 nM
IC50 (ROCK2): 84.9 nM

COc1ccccc1CCNC(=O)c1ccc(-c2cn[nH]c2)c(OC)c1 [Example 126, 3-methoxy-N-[2-(2-methoxyphenyl)ethyl]-4-(1H-pyrazol-4-yl)benzamide]
IC50 (ROCK1): 155 nM
IC50 (ROCK2): 1350 nM

COc1cc(C(=O)NC[C@@H](O)c2cccc(Cl)c2)ccc1-c1cn[nH]c1 [Example 127, N-[(2S)-2-(3-chlorophenyl)-2-hydroxyethyl]-3-methoxy-4-(1H-pyrazol-4-yl)benzamide]
IC50 (ROCK1): 23.4 nM
IC50 (ROCK2): 32.1 nM

COc1cc(C(=O)N[C@H](CO)Cc2ccccc2)ccc1-c1cn[nH]c1 [Example 128, N-[(2S)-1-hydroxy-3-phenylpropan-2-yl]-3-methoxy-4-(1H-pyrazol-4-yl)benzamide]
IC50 (ROCK1): 12.5 nM
IC50 (ROCK2): 5.7 nM

COc1cc(C(=O)NC[C@@H](C)c2ccccc2)ccc1-c1cn[nH]c1 [Example 129, 3-methoxy-N-[(2S)-2-phenylpropyl]-4-(1H-pyrazol-4-yl)benzamide]
IC50 (ROCK1): 34 nM
IC50 (ROCK2): 33.1 nM

COc1cc(C(=O)NC[C@H](O)c2ccccc2)ccc1-c1cn[nH]c1 [Example 130, N-[(2R)-2-hydroxy-2-phenylethyl]-3-methoxy-4-(1H-pyrazol-4-yl)benzamide]
IC50 (ROCK1): 53.7 nM
IC50 (ROCK2): 33.4 nM

COc1cc(C(=O)NCC(O)c2cccc(O)c2)ccc1-c1cn[nH]c1 (stereo not drawn) [Example 131, N-[2-hydroxy-2-(3-hydroxyphenyl)ethyl]-3-methoxy-4-(1H-pyrazol-4-yl)benzamide]
IC50 (ROCK1): 42 nM
IC50 (ROCK2): 12.7 nM

COc1cc(C(=O)NCC(c2ccccc2)N2CCNCC2)ccc1-c1cn[nH]c1 (stereo not drawn) [Example 132, 3-methoxy-N-[2-phenyl-2-(piperazin-1-yl)ethyl]-4-(1H-pyrazol-4-yl)benzamide]
IC50 (ROCK1): 180 nM
IC50 (ROCK2): 103 nM

COc1cc(C(=O)N[C@@H](CO)Cc2ccccc2)ccc1-c1cn[nH]c1 [Example 133, N-[(2R)-1-hydroxy-3-phenylpropan-2-yl]-3-methoxy-4-(1H-pyrazol-4-yl)benzamide]
IC50 (ROCK1): 77.9 nM
IC50 (ROCK2): 34 nM

COC(=O)c1cc(CNC(=O)c2ccc(-c3cn[nH]c3)c(OC)c2)ccc1F [Example 134, methyl 2-fluoro-5-({[3-methoxy-4-(1H-pyrazol-4-yl)phenyl] formamido}methyl)benzoate]
IC50 (ROCK1): 6.53 nM
IC50 (ROCK2): 0.82 nM

COc1cccc(C(C)NC(=O)c2ccc(-c3cn[nH]c3)c(OC)c2)n1 (stereo not drawn) [Example 135, 3-methoxy-N-[1-(6-methoxypyridin-2-yl)ethyl]-4-(1H-pyrazol-4-yl)benzamide]
IC50 (ROCK1): 73.4 nM
IC50 (ROCK2): 16.9 nM

C[C@@H](NC(=O)c1ccc(-c2cn[nH]c2)c(Cn2ccnn2)c1)c1ccccc1 [Example 137, N-[(1R)-1-phenylethyl]-4-(1H-pyrazol-4-yl)-3-(1H-1,2,3-triazol-1-ylmethyl) benzamide]
IC50 (ROCK1): > 2000 nM
IC50 (ROCK2): 1900 nM

COc1cc(C(=O)NCc2cccc(C#N)c2)ccc1-c1cn[nH]c1 [Example 138, N-[(3-cyanophenyl)methyl]-3-methoxy-4-(1H-pyrazol-4-yl)benzamide]
IC50 (ROCK1): 32.6 nM
IC50 (ROCK2): 8.24 nM

COc1ccc(F)c(C(C)NC(=O)c2ccc(-c3cn[nH]c3)c(OC)c2)c1 (stereo not drawn) [Example 139, N-[1-(2-fluoro-5-methoxy-phenyl)ethyl]-3-methoxy-4-(1H-pyrazol-4-yl)benzamide]
IC50 (ROCK1): 172 nM
IC50 (ROCK2): 47.2 nM

COc1ccc(F)c(C(C)NC(=O)c2ccc(-c3cn[nH]c3)c(OC)c2)c1 (stereo not drawn) [Example 140, N-[1-(2-fluoro-5-methoxyphenyl)ethyl]-3-methoxy-4-(1H-pyrazol-4-yl)benzamide]
IC50 (ROCK1): 3.36 nM
IC50 (ROCK2): 0.83 nM

COc1cc(C(=O)NCc2ccc(C#N)cc2)ccc1-c1cn[nH]c1 [Example 143, N-[(4-cyanophenyl)methyl]-3-methoxy-4-(1H-pyrazol-4-yl)benzamide]
IC50 (ROCK1): 365 nM
IC50 (ROCK2): 82.5 nM

COc1cc(C(=O)NC(CCO)c2ccccc2)ccc1-c1cn[nH]c1 (stereo not drawn) [Example 145, N-(3-hydroxy-1-phenylpropyl)-3-methoxy-4-(1H-pyrazol-4-yl)benzamide]
IC50 (ROCK1): 301 nM
IC50 (ROCK2): 282 nM

COc1cc(C(=O)NC(CCO)c2ccccc2)ccc1-c1cn[nH]c1 (stereo not drawn) [Example 146, N-(3-hydroxy-1-phenylpropyl)-3-methoxy-4-(1H-pyrazol-4-yl)benzamide]
IC50 (ROCK1): 7.8 nM
IC50 (ROCK2): 2.17 nM

COc1ccc(F)c(C(C)NC(=O)c2ccc(-c3c[nH]nc3C)cc2OC)c1 (stereo not drawn) [Example 147, N-[1-(2-fluoro-5-methoxyphenyl)ethyl]-2-methoxy-4-(3-methyl-1H-pyrazol-4-yl)benzamide]
IC50 (ROCK1): 23.5 nM
IC50 (ROCK2): 5.09 nM

COc1ccc(F)c(CNC(=O)c2ccc(-c3cn[nH]c3)c(C)c2)c1 [Example 148, N-[(2-fluoro-5-methoxyphenyl)methyl]-3-methyl-4-(1H-pyrazol-4-yl)benzamide]
IC50 (ROCK1): 174 nM
IC50 (ROCK2): 51.2 nM

Cc1cc(C(=O)NCc2ccc(F)cc2Cl)ccc1-c1cn[nH]c1 [Example 149, N-[(2-chloro-4-fluorophenyl)methyl]-3-methyl-4-(1H-pyrazol-4-yl)benzamide]
IC50 (ROCK1): 16.9 nM
IC50 (ROCK2): 11.6 nM

Cc1cc(C(=O)N[C@H](C)c2ccc(F)cc2)ccc1-c1cn[nH]c1 [Example 150, N-[(1R)-1-(4-fluorophenyl)ethyl]-3-methyl-4-(1H-pyrazol-4-yl)benzamide]
IC50 (ROCK1): 13.1 nM
IC50 (ROCK2): 18.9 nM

Cc1cc(C(=O)NCc2c(F)cccc2Cl)ccc1-c1cn[nH]c1 [Example 151, N-[(2-chloro-6-fluorophenyl)methyl]-3 methyl-4-(1H-pyrazol-4-yl)benzamide]
IC50 (ROCK1): 19.7 nM
IC50 (ROCK2): 9.83 nM

COc1ccc(F)c(C(C)NC(=O)c2ccc(-c3c[nH]nc3C)cc2OC)c1 (stereo not drawn) [Example 152, N-[1-(2-fluoro-5-methoxyphenyl)ethyl]-2-methoxy-4-(3-methyl-1H-pyrazol-4-yl)benzamide]
IC50 (ROCK1): 1510 nM
IC50 (ROCK2): 627 nM

COc1cccc([C@@H](C)NC(=O)c2ccc(-c3c(C)n[nH]c3C)c(C)c2)c1 [Example 153, 4-(3,5-dimethyl-1H-pyrazol-4-yl)-N-[(1R)-1-(3-methoxyphenyl)ethyl]-3-methylbenzamide]
IC50 (ROCK1): > 2000 nM
IC50 (ROCK2): 415 nM

C[C@@H](NC(=O)c1ccc(-c2cn[nH]c2)c(OCC(C)(C)O)c1)c1ccccc1 [Example 154, 3-(2-hydroxy-2-methylpropoxy)-N-[(1R)-1-phenylethyl]-4-(1H-pyrazol-4-yl)benzamide]
IC50 (ROCK1): 1790 nM
IC50 (ROCK2): 452 nM

COC(=O)C[C@@H](NC(=O)c1ccc(-c2cn[nH]c2)c(C)c1)c1ccccc1 [Example 155, methyl (3R)-3-{[3-methyl-4-(1H-pyrazol-4-yl)phenyl] formamido}-3-phenyl-propanoate]
IC50 (ROCK1): 405 nM
IC50 (ROCK2): 70.2 nM

C[C@@H](NC(=O)c1ccc(-c2cn[nH]c2)c(OC(F)F)c1)c1ccccc1 [Example 156, 3-(difluoro-methoxy)-N-[(1R)-1-phenylethyl]-4-(1H-pyrazol-4-yl)benzamide]
IC50 (ROCK1): 11.4 nM
IC50 (ROCK2): 4 nM

COC[C@@H](NC(=O)c1ccc(-c2cn[nH]c2)c(OC)c1)c1ccccc1 [Example 157, 3-methoxy-N-[(1S)-2-methoxy-1-phenylethyl]-4-(1H-pyrazol-4-yl)benzamide]
IC50 (ROCK1): 10.3 nM
IC50 (ROCK2): 3.94 nM

COc1cc(C(=O)NC(C)c2cccc(O)n2)ccc1-c1cn[nH]c1 (stereo not drawn) [Example 159, N-[1-(6-hydroxypyridin-2-yl)ethyl]-3-methoxy-4-(1H-pyrazol-4-yl)benzamide]
IC50 (ROCK1): 7.39 nM
IC50 (ROCK2): 6.76 nM

O=C(N[C@H](CO)c1ccccc1)c1ccc(-c2cn[nH]c2)c(OC(F)F)c1 [Example 160, 3-(difluoro-methoxy)-N-[(1S)-2-hydroxy-1-phenylethyl]-4-(1H-pyrazol-4-yl)benzamide]
IC50 (ROCK1): 17.1 nM
IC50 (ROCK2): 6.94 nM

COc1cccc(CNC(=O)c2ccc(-c3cn[nH]c3)cc2CO)c1 [Example 161, 2-(hydroxymethyl)-N-[(3-methoxyphenyl)methyl]-4-(1H-pyrazol-4-yl)benzamide]
IC50 (ROCK1): 792 nM
IC50 (ROCK2): 185 nM

COc1cc(C(=O)NC(CO)c2ccccc2F)ccc1-c1cn[nH]c1 (stereo not drawn) [Example 162, N-[1-(2-fluorophenyl)-2-hydroxyethyl]-3-methoxy-4-(1H-pyrazol-4-yl)benzamide]
IC50 (ROCK1): 11.7 nM
IC50 (ROCK2): 2.94 nM

C[C@@H](NC(=O)c1ccc(-c2cn[nH]c2)c(OC(F)F)c1)c1ccc(F)cc1 [Example 164, 3-(difluoro-methoxy)-N-[(1R)-1-(4-fluorophenyl)ethyl]-4-(1H-pyrazol-4-yl)benzamide]
IC50 (ROCK1): 22.5 nM
IC50 (ROCK2): 7.49 nM
